These results are taken from PMC11476419, “Analysis of Punicalin and Punicalagin Interaction with PDIA3 and PDIA1” (International Journal of Molecular Sciences, 2024).

Assay [1] has as its target T1, PDIA1 (Homo sapiens, UniProt P07237).
T1 construct: The mature human PDIA1 with an N-terminal His6x-tag was expressed and purified; His6 (N); made in house
As to the kind of experiment: Insulin turbidity assay, disulfide reductase activity. Format: biochemical. The note with it: insulin substrate, PDIA1 800 nM, reducing conditions. Here is the method: (§1) To further evaluate the inhibitory effect of punicalin and punicalagin on the enzymatic activity of the two proteins, we performed a different assay using insulin, a physiologically more appropriate substrate. The results obtained are reported in Figure 4 and show again a lesser inhibitory effect of punicalin compared to punicalagin, as observed with the glutathione-based assay.
PDI disulfide reductase activity was assayed by measuring the reduction of insulin catalyzed by PDIs with DTT. A 50 μM stock solution of each PDI was reduced using TCEP (5 mM final concentration) for 90 min at room temperature. […] After incubation, an equal volume of the 2× reaction mixture (consisting of DTT 50 μM and human insulin 0.32 mM) was added. Protein activity was evaluated by monitoring the increase in turbidity of the solutions at 600 nm.
(§2) In both assays, the inhibition constants were extrapolated by GraphPad Prism 8.0 software (GraphPad Software, San Diego, CA, USA), plotting the obtained data as logarithm dose–response curves.

Assay [2] concerns the target T1, PDIA1. As to the kind of experiment: Differential scanning fluorimetry (protein thermal shift). The class given is binding. The note with it: PDIA1, compound 20 µM. Here is the method:
(§3) The effect of punicalin and punicalagin on the stability of both proteins was evaluated by differential scanning fluorimetry (DSF). Initially, PDIA1 and PDIA3 were incubated at 25 °C for 20 min with both substances at 5 µM and 20 µM concentrations. […] The reading was optimized at intervals of 0.2 °C every 5 s. Once the fluorescence profile was obtained, the data were analyzed with the GraphPad prism program, by either fitting data with a Boltzmann equation or calculating the first derivative. In DSF analyses, a gradual increase in fluorescence is observed, due to a conformational change in the protein, which reaches a maximum value and then decreases because of protein precipitation.
(§4) To evaluate Tm, we focused the attention on the main transition, and thus we fitted, with a Boltzmann equation, the data in the range of 25–55 °C for PDIA3 and in the range of 45–70 °C for PDIA1. Again, the two substances show a destabilizing effect, which was more evident for PDIA3 than for PDIA1. In fact, punicalagin and punicalin at a 20 µM concentration cause a shift of Tm of at least 6 °C in the case of PDIA3, while this is approximately 3 °C for PDIA1 (Figure 7).
(§5) Protein stability in the absence and presence of punicalagin/punicalin was tested by means of the fluorescence-based thermal stability assay or differential scanning fluorimetry (DSF) developed by Pantoliano and coworkers. DSF records the fluorescence emission signal from the binding of a dye (SYPRO orange) to the exposed hydrophobic patches upon protein unfolding. Fluorescence measurements were performed using a CFX96 Connect RT-PCR instrument (BioRad, Hercules, CA, USA). Aliquots of 18 μL of protein solution (2 μM), freshly diluted in Tris Buffered saline (50 mM TrisHCl, pH 8.0, 150 mM NaCl) containing 0.1 mM DTT, 0.2 mM EDTA, and 1: 1000 dilution of SYPRO Orange (50 mM stock solution in DMSO), were distributed in a 96-well plate. Sample wells were added with punicalagin or punicalin at a final concentration of 5 uM or 20 μM by adding 2 μL of a 10-fold concentrated freshly prepared stock solution. As control, the protein solution was added with 2 μL of the dilution buffer. A melting point analysis was recorded by increasing the temperature from 25 to 70 °C with an increment of 0.2 °C every 5 s and reading, at each temperature, the fluorescence in fluorescence resonance energy transfer mode (FRET). Each measure was the average of three sample well readings, and each DSF experiment was repeated at least three times. To calculate Tm values, DSF data from the melting curve were exported and fitted to a Boltzmann equation using GraphPad software. The effect of punicalagin and punicalin was evaluated comparing the Tm values in the presence and absence of each molecule.

For assay [3], the target named is T2, PDIA3 (Homo sapiens, UniProt P30101).
T2 construct: The mature recombinant form (devoid of the N-terminal presence) of the human PDIA3 protein was expressed and purified; made in house
T2 sequence (P30101 25-505): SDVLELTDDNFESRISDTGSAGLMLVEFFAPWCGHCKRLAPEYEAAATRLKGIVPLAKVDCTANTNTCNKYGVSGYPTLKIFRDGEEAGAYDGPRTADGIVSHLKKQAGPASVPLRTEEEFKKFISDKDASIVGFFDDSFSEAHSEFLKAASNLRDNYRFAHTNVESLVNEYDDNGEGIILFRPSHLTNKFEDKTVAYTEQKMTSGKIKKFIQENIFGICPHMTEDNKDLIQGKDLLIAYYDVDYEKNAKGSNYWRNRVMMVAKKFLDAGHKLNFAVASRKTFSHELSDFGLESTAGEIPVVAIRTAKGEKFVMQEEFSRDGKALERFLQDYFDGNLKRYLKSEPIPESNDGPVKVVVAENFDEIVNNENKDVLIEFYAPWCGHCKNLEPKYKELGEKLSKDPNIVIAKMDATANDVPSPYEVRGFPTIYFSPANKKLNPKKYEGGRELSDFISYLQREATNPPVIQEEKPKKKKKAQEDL
Described as above. The class given is binding. On the procedure:
as §3, §4, §5

For assay [4], the system named is PDIA3. Also noted: method as in PMID 37686085. Particulars: 30 µM, 24 h after treatment; ref [34]; cited from earlier work.
The target of assay [5] is T2, PDIA3. Description: Insulin turbidity assay, disulfide reductase activity. The note with it: insulin substrate, PDIA3 1600 nM, reducing conditions. Format: biochemical. On the procedure: as §1
PDI disulfide reductase activity was assayed by measuring the reduction of insulin catalyzed by PDIs with DTT. A 50 μM stock solution of each PDI was reduced using TCEP (5 mM final concentration) for 90 min at room temperature. Aliquots of the stock solution were diluted in the incubation mixture (PDIA1 1.6 µM and PDIA3 3.2 µM) containing sodium phosphate buffer (100 mM sodium phosphate, 2 mM EDTA, pH 7.0) added with punicalin/punicalagin (concentration ranging from 0 to 50 µM) and incubated at 37 °C for 1 h. After incubation, an equal volume of the 2× reaction mixture (consisting of DTT 50 μM and human insulin 0.32 mM) was added. Protein activity was evaluated by monitoring the increase in turbidity of the solutions at 600 nm.
as §2

Assay [6] deals with T2, PDIA3. Also noted: method as in Paglia et al. [40]. Particulars: reduced PDIA3; ref Paglia et al. [40]; cited from earlier work.
Assay [7] deals with T1, PDIA1. Details: method as in Paglia et al. [40]. The note with it: reduced PDIA1; ref Paglia et al. [40]; cited from earlier work.

T1 sequence (P07237 18-508): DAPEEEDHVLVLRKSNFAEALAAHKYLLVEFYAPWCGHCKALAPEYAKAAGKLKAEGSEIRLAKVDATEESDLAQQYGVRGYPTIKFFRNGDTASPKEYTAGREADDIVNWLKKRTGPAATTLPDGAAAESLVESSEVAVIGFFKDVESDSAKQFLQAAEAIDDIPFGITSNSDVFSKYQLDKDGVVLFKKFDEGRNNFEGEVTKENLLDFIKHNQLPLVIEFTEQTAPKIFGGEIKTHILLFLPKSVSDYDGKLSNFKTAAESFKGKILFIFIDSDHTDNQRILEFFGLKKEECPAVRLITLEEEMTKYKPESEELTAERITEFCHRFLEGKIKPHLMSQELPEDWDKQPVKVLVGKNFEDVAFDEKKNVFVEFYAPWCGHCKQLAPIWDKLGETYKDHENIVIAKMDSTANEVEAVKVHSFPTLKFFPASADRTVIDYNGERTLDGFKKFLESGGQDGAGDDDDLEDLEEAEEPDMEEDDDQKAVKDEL

By IC50 is commonly meant the concentration that inhibits the measured activity by half. High values mean weaker potency in that assay, low ones greater potency in that assay. In the case of `O=C1O[C@H]2[C@@H]3OC(=O)c4cc(O)c(O)c(O)c4-c4c(O)c(O)c5oc(=O)c6c(c(O)c(O)c7oc(=O)c4c5c76)-c4c(cc(O)c(O)c4O)C(=O)OC[C@H]3OC(O)[C@@H]2OC(=O)c2cc(O)c(O)c(O)c2-c2c1cc(O)c(O)c2O` (mixture of isomers) [Punicalagin, punicalagin], the values for the IC50 against PDIA1 [1] and against PDIA3 [5] were 13.7 µM and 8.8 µM, respectively. Further, the “shift towards lower temperature of second main transition (first-derivative graph)” value on PDIA1 [2] was “about 5 °C”. The “shift of Tm (destabilizing, Boltzmann fit)” value was “approximately 3 °C” at PDIA1 [2] (fit range 45–70 °C) and “at least 6 °C” on PDIA3 [3] (PDIA3, compound 20 µM, fit range 25–55 °C). Moreover, the “left shift of first transition (first-derivative graph)” value on PDIA3 [3] (PDIA3, compound 20 µM) was “about 3 °C”. Moreover, on PDIA3 [3] (PDIA3, compound 20 µM), the “shift towards lower temperature of second transition (first-derivative graph)” value was “more than 10 °C”. In addition, the “Tm of PDIA3 after addition of compound” value on PDIA3 [3] (PDIA3 alone Tm 46 °C) was “below 40 °C”. Further, the “formation of PDIA3 protein aggregates” value in the assay with PDIA3 [4] is “induced the formation of protein aggregates”. Besides, the “Stern–Volmer constant (KSV)” value at PDIA3 [6] is reported as 157.1 ± 1.9 M^−1 × 10^3; on PDIA1 [7] it was 97.9 ± 2.1 M^−1 × 10^3.
